Source: patent US6417202B1, “Pyridylpyrrole compounds useful as interleukin-and TNF antagonists” (Pfizer Inc., priority 1996, dated 2002)

| melting point [°C] | SMILES |
| --- | --- |
| 209 to 211 | CCC(=O)c1c(-c2ccncc2)[nH]c(-c2ccncc2)c1CC [Example 3, 4-Ethyl-3-propanoyl-2,5-di(4-pyridyl)-1H-pyrrole] |
| 250 to 255 | CC(=O)c1c(-c2ccncc2)[nH]c(-c2ccncc2)c1C(F)(F)F [Example 4, 3-Acetyl-2,5-di(4-pyridyl)-4-trifluoromethyl-1H-pyrrole] |
| 237 to 238 | CCC(=O)c1c(-c2ccncc2)[nH]c(-c2ccncc2)c1C [Example 5, 4-Methyl-3-propanoyl-2,5-di(4-pyridyl)-1H-pyrrole] |
| 88 to 89 | CCCCC(=O)c1c(-c2ccncc2)[nH]c(-c2ccncc2)c1C [Example 6, 4-Methyl-2,5-di(4-pyridyl)-3-pentanoyl-1H-pyrrole] |
| 208 to 210 | CC(=O)c1c(-c2ccncc2)[nH]c(-c2ccncc2)c1-c1ccccc1 [Example 7, 3-Acetyl-4-phenyl-2,5-di(4-pyridyl)-1H-pyrrole] |
| > 260 | CC(=O)c1c(-c2ccnc3ccccc23)[nH]c(-c2ccnc3ccccc23)c1C [Example 8, 3-Acetyl-4-methyl-2,5-di(4-quinolyl)-1H-pyrrole] |
| 237 to 239 | CC(=O)c1c(-c2ccncc2)[nH]c(-c2ccnc3ccccc23)c1C [Example 9, 3-Acetyl-4-methyl-2-(4-pyridyl)-5-(4-quinolyl)-1H-pyrrole] |
| 212 to 215 | CCOC(=O)c1c(-c2ccncc2)[nH]c(-c2ccncc2)c1CC [Example 10, 3-Ethoxycarbonyl-4-ethyl-2,5-di(4-pyridyl)-1H-pyrrole] |
| 206 to 208 | CCOC(=O)c1c(-c2ccncc2)[nH]c(-c2ccncc2)c1C [Example 11, 3-Ethoxycarbonyl-4-methyl-2,5-di(4-pyridyl)-1H-pyrrole] |
| 204 to 205 | Cc1c(-c2ccncc2)[nH]c(-c2ccncc2)c1C(=O)OCc1ccccc1 [Example 13, 3-Benzyloxycarbonyl-4-methyl-2,5-di(4-pyridyl)-1H-pyrrole] |
| 224 to 224.5 | C=CCOC(=O)c1c(-c2ccncc2)[nH]c(-c2ccncc2)c1C [Example 14, 3-Allyloxycarbonyl-4-methyl-2,5-di(4-pyridyl)-1H-pyrrole] |
| 218 to 221 | Cc1c(-c2ccncc2)[nH]c(-c2ccncc2)c1C(=O)OC(C)C [Example 15, 4-Methyl-3-(1-methylethoxy)carbonyl-2,5-di(4-pyridyl)-1H-pyrrole] |
| 265 to 267 | Cc1c(-c2ccncc2)[nH]c(-c2ccncc2)c1C(=O)OC(C)(C)C [Example 16, 4-Methyl-3-(1,1-dimethylethoxy)carbonyl-2,5-di(4-pyridyl)-1H-pyrrole] |
| 215 to 218 | CCCOC(=O)c1c(-c2ccncc2)[nH]c(-c2ccncc2)c1C [Example 17, 4-Methyl-3-propoxycarbonyl-2,5-di(4-pyridyl)-1H-pyrrole] |
| 99 to 100 | CCOC(=O)c1c(-c2ccncc2)[nH]c(-c2ccncc2)c1-c1ccccc1 [Example 18, 3-Ethoxycarbonyl-4-phenyl-2,5-di(4-pyridyl)-1H-pyrrole] |
| 174 to 177 | COCCOC(=O)c1c(-c2ccncc2)[nH]c(-c2ccncc2)c1C [Example 20, 3-(2-Methoxyethoxy)carbonyl-4-methyl-2,5-di(4-pyridyl)-1H-pyrrole] |
| 97 to 99 | COCc1c(-c2ccncc2)[nH]c(-c2ccncc2)c1C(=O)OC [Example 24, 3-Methoxycarbonyl-4-methoxymethyl-2,5-di(4-pyridyl)-1H-pyrrole] |
| 274 to 276 | CCOC(=O)c1c(-c2ccncc2)[nH]c(-c2ccncc2)c1-c1ccc([N+](=O)[O-])cc1 [Example 25, 3-Ethoxycarbonyl-4-(4-nitrophenyl)-2,5-di(4-pyridyl)-1H-pyrrole] |
| 278 to 280 | Cc1c(-c2ccncc2)[nH]c(-c2ccncc2)c1C=O [Example 26, 3-Formyl-4-methyl-2,5-di(4-pyridyl)-1H-pyrrole] |
| 232 to 234 | Cc1c(-c2ccncc2)[nH]c(-c2ccncc2)c1S(C)(=O)=O [Example 27, 3-Metha nesulfonyl-4-methyl-2,5-di(4-pyridyl)-1H-pyrrole] |
| 241 to 243 | CCc1c(-c2ccncc2)[nH]c(-c2ccncc2)c1C(C)=O [Example 28, 3-Acetyl-4-ethyl-2,5-di(4-pyridyl)-1H-pyrrole] |
| 111 to 113 | CCCc1c(-c2ccncc2)[nH]c(-c2ccncc2)c1C(C)=O [Example 29, 3-Acetyl-4-propyl-2,5-di(4-pyridyl)-1H-pyrrole] |
| 93 to 95 | CCCCc1c(-c2ccncc2)[nH]c(-c2ccncc2)c1C(C)=O [Example 31, 3-Acetyl-4-butyl-2,5-di(4-pyridyl)-1H-pyrrole] |
| 205 to 207 | CC(=O)c1c(-c2ccncc2)[nH]c(-c2ccncc2)c1CO [Example 33, 3-Acetyl-4-hydroxymethyl-2,5-di(4-pyridyl)-1H-pyrrole] |

| melting point [°C] | SMILES |
| --- | --- |
| 258 to 261 | Cc1c(-c2ccncc2)[nH]c(-c2ccncc2)c1CO [Example 39, 3-Hydroxymethyl-4-methyl-2,5-di(4-pyridyl)-1H-pyrrole] |
| 212 to 215 | Cc1c(-c2ccncc2)[nH]c(-c2ccncc2)c1C(N)=O [Example 40, 3-Aminocarbonyl-4-methyl-2,5-di(4-pyridyl)-1H-pyrrole] |
| 236 to 239 | CC(=O)c1c(C)[nH]c(-c2ccncc2)c1-c1ccncc1 [Example 42, 3-Acetyl-2-methyl-4,5-di(4-pyridyl)1H-pyrrole] |
| 236 to 237 | CC(=O)c1cc(-c2ccncc2)[nH]c1C [Example 43, 3-Acetyl-2-methyl-5-(4-pyridyl)-1H-pyrrole] |
| 202 to 203 | CC(=O)c1c(-c2ccccc2)[nH]c(-c2ccncc2)c1C [Example 46, 3-Acetyl-4-methyl-2-phenyl-5-(4-pyridyl)-1H-pyrrole] |
| 208 to 209 | CC(=O)c1c(-c2ccncc2)[nH]c(-c2ccccc2)c1C [Example 47, 3-Acetyl-4-methyl-5-phenyl-2-(4-pyridyl)-1H-pyrrole] |
| 210 to 211 | CC(=O)c1c[nH]c(-c2ccncc2)c1C [Example 48, 3-Acetyl-4-methyl-5-(4-pyridyl)-1H-pyrrole] |
| 248 to 249 | Cc1c(-c2ccncc2)[nH]c2c1C(=O)CCC2 [Example 49, 3-Methyl-4-oxo-2-(4-pyridyl)-4,5,6,7-tetrahydro-1H-indole] |
| 202 to 203 | CC(=O)c1c(-c2ccc(F)cc2)[nH]c(-c2ccncc2)c1C [Example 51, 3-Acetyl-2-(4-fluorophenyl)4-methyl-5-(4-pyridyl)-1H-pyrrole] |
| 231 to 232 | CC(=O)c1c(-c2cccs2)[nH]c(-c2ccncc2)c1C [Example 52, 3-Acetyl-4-methyl-5-(4-pyridyl)-2-(2-thienyl)-1H-pyrrole] |
| 259 to 260 | O=C1CCCc2c(-c3ccncc3)[nH]c(-c3ccccc3)c21 [Example 53, 4-Oxo-3-phenyl-1-(4-pyridyl)-4,5,6,7-tetrahydroisoindole] |
| 254 to 255 | O=C1CCCc2c(-c3ccccc3)[nH]c(-c3ccncc3)c21 [Example 54, 7-Oxo-3-phenyl-1-(4-pyridyl)-4,5,6,7-tetrahydroisoindole] |
| 241 to 241.5 | Cc1c(-c2ccncc2)[nH]c2c1C(=O)CC(C)(C)C2 [Example 55, 4-Oxo-2-(4-pyridyl)-3,6,6-trimethyl-4,5,6,7-tetrahydro-1H-indole] |
| 256 to 257 | Cc1c(-c2ccncc2)[nH]c2c1C(=O)CC(c1ccccc1)C2 (stereo not shown) [Example 56, 3-Methyl-4-oxo-6-phenyl-2-(4-pyridyl)-4,5,6,7-tetrahydro-1H-indole] |
| 193 to 195 | CC(=O)c1c(-c2cccc(N)c2)[nH]c(-c2ccncc2)c1C [Example 58, 3-Acetyl-2-(3-aminophenyl)-4-methyl-5-(4-pyridyl)-1H-pyrrole] |
| 116 to 123 | CC(=O)c1c(-c2ccc3ccccc3c2)[nH]c(-c2ccncc2)c1C [Example 59, 3-Acetyl-4-methyl-2-(2-naphthyl)-5-(4-pyridyl)-1H-pyrrole] |
| 97 to 100 | CC(=O)c1c(-c2ccc(C=O)cc2)[nH]c(-c2ccncc2)c1C [Example 60, 3-Acetyl-2-(4-formylphenyl)-4-methyl-5-(4-pyridyl)-1H-pyrrole] |
| 218 to 220 | CC(=O)c1c(-c2cccc3ccccc23)[nH]c(-c2ccncc2)c1C [Example 61, 3-Acetyl-4-methyl-2-(1-naphthyl)-5-(4-pyridyl)-1H-pyrrole] |
| 158 to 159 | CC(=O)c1c(-c2cccc(Oc3ccc(F)cc3)c2)[nH]c(-c2ccncc2)c1C [Example 62, 3-Acetyl-2-{3-(4-fluorophenoxy)phenyl}-4-methyl-5-(4-pyridyl)-1H-pyrrole] |
| 214 to 217 | CC(=O)c1c(-c2cccc([N+](=O)[O-])c2)[nH]c(-c2ccncc2)c1C [Example 64, 3-Acetyl-4-methyl-2-(3-nitrophenyl)-5-(4-pyridyl)-1H-pyrrole] |
| 182 to 186 | CC(=O)c1c(-c2cccnc2)[nH]c(-c2ccncc2)c1C [Example 65, 3-Acetyl-4-methyl-2-(3-pyridyl)-5-(4-pyridyl)-1H-pyrrole] |
| 206 to 209 | CC(=O)c1c(-c2ccc(F)c(Cl)c2)[nH]c(-c2ccncc2)c1C [Example 66, 3-Acetyl-2-(3-chloro-4-fluorophenyl)-4-methyl-5-(4-pyridyl)-1H-pyrrole] |
| 150 to 155 | C=Cc1[nH]c(-c2ccncc2)c(C)c1C(C)=O [Example 67, 3-Acetyl-4-methyl-5-(4-pyridyl)-2-vinyl-1H-pyrrole] |
| 187.5 to 189.5 | CC(=O)c1c(-c2ccc(Cl)cc2)[nH]c(-c2ccncc2)c1C [Example 68, 3-Acetyl-2-(4-chlorophenyl)-4-methyl-5-(4-pyridyl)-1H-pyrrole] |

| SMILES | melting point [°C] |
| --- | --- |
| CCCCOC(=O)c1c(-c2ccncc2)[nH]c(-c2ccncc2)c1C [Example 19, 3-Butoxycarbonyl-4-methyl-2,5-di(4-pyridyl)-1H-pyrrole] | 182 to 186 |
